# Source: EP3977982A1 (Acerus Biopharma Inc., priority 2011, dated 2012)
# Where two headings read alike, the source gives them in different places.
# Key:
# [1] = nasal, dissolved in polyethylene glycol (200 mg/ml); cited from earlier work
# [2] = formulated in ethanol/propylene glycol/water; cited from earlier work
# [3] = cited from earlier work
# [4] = nasal, cited from earlier work
# [5] = Solubility of testosterone in water, solvents, oils and vehicles
# [6] = drug substance; cited from earlier work
# [7] = target: T1, sex hormone binding globulin (SHBG) (Homo sapiens, UniProt P04278); settings: cited from earlier work
# T1 sequence (P04278 30-402): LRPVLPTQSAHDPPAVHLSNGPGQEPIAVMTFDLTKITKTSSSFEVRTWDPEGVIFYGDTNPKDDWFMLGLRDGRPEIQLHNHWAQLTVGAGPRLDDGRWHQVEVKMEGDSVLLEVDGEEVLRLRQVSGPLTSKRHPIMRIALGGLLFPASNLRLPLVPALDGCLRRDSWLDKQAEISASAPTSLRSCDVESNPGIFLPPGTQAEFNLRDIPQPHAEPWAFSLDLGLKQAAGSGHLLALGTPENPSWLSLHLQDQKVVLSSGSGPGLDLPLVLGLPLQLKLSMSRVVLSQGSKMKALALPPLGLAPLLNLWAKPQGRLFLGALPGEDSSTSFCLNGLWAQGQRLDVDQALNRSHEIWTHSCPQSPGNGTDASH
# [8] = pKa assessment of testosterone; settings: inferred from molecular structure, no protonatable groups
smiles,measurement,setting,value
CC(=O)[C@H]1CC[C@H]2[C@@H]3CCC4=CC(=O)CC[C@]4(C)[C@H]3CC[C@]12C [progesterone],Tmax,[1],30 min
same,duration of serum level,[1],at least 8 hours
same,Tmax,[2],5.5 min
same,serum level decrease,[3]; nasal powder mixtures progesterone/cyclodextrin,≤ 20 min
same,Tmax,"[3]; nasal powder mixtures, co-ground and co-lyophilized progesterone/cyclodextrin",2 to 5 min
"CN(C)CC(=O)O[C@H]1CC[C@H]2[C@@H]3CCC4=CC(=O)CC[C@]4(C)[C@H]3CC[C@]12C [testosterone 17β-N,N-dimethylglycinate]",time to peak plasma concentrations,[4]; 25 mg dose,≤ 12 min
same,time to peak plasma concentrations,[4]; 50 mg dose,≤ 20 min
same,elimination half-lives,[4],about 55 min
"C[C@]12CC[C@H]3[C@@H](CCC4=CC(=O)CC[C@@]43C)[C@@H]1CC[C@@H]2O [testosterone, Testosterone]",testosterone levels in the gel,[5]; DMI used in conjunction with the other excipients,≥ 8.0%
same,testosterone dissolved by solvent alone,[5]; Diethyleneglycol ethyl ether alone,more than 10%
same,testosterone dissolved by solvent,[5]; Dimethyl isosorbide (DMI),more than 12%
same,solubility,[5]; acetone and isopropanol,soluble
same,amount an aqueous solution can contain,[5]; aqueous solution,0.002 mg per 100 µL
same,solubility of testosterone in oils,[5]; castor oil,up to 4%
same,amount a castor oil solution can contain,[5]; castor oil solution,up to 4.5 mg per 100 µL
same,solubility of testosterone in oils,[5]; corn oil,0.5%
same,solubility of testosterone in oils,[5]; cottonseed oil,0.7%
same,solubility of testosterone in oils,[5]; isopropylmyristate,0.8%
same,solubility,[5]; methanol and ethanol,freely soluble
same,solubility,[5]; n-heptane,insoluble
same,Testosterone solubility in the oil based gel,[5]; oil based TBS-1A gel (so in the source),about 4.5%
same,solubility of testosterone in oils,[5]; peanut oil,0.5%
same,solubility of testosterone in oils,[5]; soybean oil,0.6%
same,retest period,[6],5 years
same,testosterone remaining unbound (free),[7]; in men,about 2%
same,testosterone remaining unbound (free),[7]; in women,up to 3%
same,pKa,[8],no pKa value in the range 1-14
